Source: the NIST ThermoML archive (doi:10.1016/j.fluid.2010.05.019)
Numbers after ± are expanded uncertainties.

Tests used:
[1] = wn = mass fraction of the nth substance listed; conditions: 298.15 K, 101 kPa, Liquid, Alternating current cell with electrodes
[2] = 298.15 K, Liquid; for electrical conductivity: 101 kPa, Alternating current cell with electrodes; for viscosity / mass density: 101.33 kPa; for viscosity: Cone and plate viscometry; for mass density: Pycnometric method

C1CC[NH2+]C1.CCCCCCC(=O)[O-] [pyrrolidinium heptanoate] + O
[1]
Conditions | electrical conductivity [S/m]
w2 = 0 | 0.186 ± 0.015
w2 = 0.0476 | 0.528 ± 0.042
w2 = 0.0909 | 0.74 ± 0.059
w2 = 0.1489 | 1.13 ± 0.09
w2 = 0.2 | 1.41 ± 0.11
w2 = 0.2593 | 1.8 ± 0.14
w2 = 0.2857 | 1.97 ± 0.16
w2 = 0.3103 | 2.12 ± 0.17
w2 = 0.3333 | 2.22 ± 0.18
w2 = 0.3548 | 2.31 ± 0.18
w2 = 0.375 | 2.38 ± 0.19
w2 = 0.3939 | 2.42 ± 0.19
w2 = 0.403 | 2.44 ± 0.2
w2 = 0.4203 | 2.47 ± 0.2
w2 = 0.4444 | 2.53 ± 0.2
w2 = 0.4595 | 2.56 ± 0.2
w2 = 0.4872 | 2.59 ± 0.21
w2 = 0.5 | 2.6 ± 0.21
w2 = 0.5238 | 2.61 ± 0.21
w2 = 0.5556 | 2.62 ± 0.21
w2 = 0.608 | 2.47 ± 0.2
w2 = 0.7011 | 2.12 ± 0.17
w2 = 0.805 | 1.52 ± 0.12
w2 = 0.905 | 0.728 ± 0.058

C1CC[NH2+]C1.CCCCCC(=O)[O-] [pyrrolidinium hexanoate]
[2]
Conditions | electrical conductivity [S/m] | mass density [kg/m3] | viscosity [mPa·s]
– | 0.204 ± 0.016 | 988 ± 60 | 27.4

C1CC[NH2+]C1.CCCCCC(=O)[O-] [pyrrolidinium hexanoate] + O
[1]
Conditions | electrical conductivity [S/m]
w2 = 0 | 0.204 ± 0.016
w2 = 0.0476 | 0.568 ± 0.045
w2 = 0.0909 | 0.95 ± 0.076
w2 = 0.1489 | 1.54 ± 0.12
w2 = 0.1667 | 1.73 ± 0.14
w2 = 0.1837 | 1.91 ± 0.15
w2 = 0.2 | 2.01 ± 0.16
w2 = 0.2308 | 2.21 ± 0.18
w2 = 0.2593 | 2.4 ± 0.19
w2 = 0.2727 | 2.48 ± 0.2
w2 = 0.2982 | 2.61 ± 0.21
w2 = 0.3103 | 2.65 ± 0.21
w2 = 0.3333 | 2.76 ± 0.22
w2 = 0.3548 | 2.86 ± 0.23
w2 = 0.3846 | 2.91 ± 0.23
w2 = 0.403 | 2.91 ± 0.23
w2 = 0.4521 | 2.92 ± 0.23
w2 = 0.5 | 2.89 ± 0.23
w2 = 0.5294 | 2.85 ± 0.23
w2 = 0.5506 | 2.81 ± 0.23
w2 = 0.601 | 2.53 ± 0.2
w2 = 0.7015 | 1.96 ± 0.16
w2 = 0.8004 | 1.21 ± 0.097
w2 = 0.9002 | 0.551 ± 0.044

C1CC[NH2+]C1.O=[N+]([O-])[O-] [pyrrolidinium nitrate]
[2]
Conditions | electrical conductivity [S/m] | viscosity [mPa·s]
– | 5.01 ± 0.4 | 5.2

C1CC[NH2+]C1.O=[N+]([O-])[O-] [pyrrolidinium nitrate] + O
[1]
Conditions | electrical conductivity [S/m]
w2 = 0 | 5.01 ± 0.4
w2 = 0.0476 | 6.79 ± 0.54
w2 = 0.0908 | 7.74 ± 0.62
w2 = 0.1665 | 9.11 ± 0.73
w2 = 0.1999 | 9.7 ± 0.78
w2 = 0.2591 | 10.4 ± 0.83
w2 = 0.3101 | 10.9 ± 0.87
w2 = 0.3546 | 11.1 ± 0.88
w2 = 0.3937 | 11.3 ± 0.91
w2 = 0.4592 | 11.2 ± 0.9
w2 = 0.4998 | 10.8 ± 0.87
w2 = 0.5553 | 10.9 ± 0.88
w2 = 0.5998 | 10.4 ± 0.83
w2 = 0.655 | 9.97 ± 0.8
w2 = 0.7013 | 9.42 ± 0.75
w2 = 0.7999 | 7.86 ± 0.63
w2 = 0.8504 | 6.1 ± 0.49
w2 = 0.9074 | 4.5 ± 0.36
w2 = 0.96 | 2.5 ± 0.2
w2 = 0.9987 | 0.122 ± 0.01

C1CC[NH2+]C1.CCCCCCCCC(=O)[O-] [pyrrolidinium nonanoate]
[2]
Conditions | electrical conductivity [S/m] | mass density [kg/m3] | viscosity [mPa·s]
– | 0.064 ± 0.005 | 931.5 ± 60 | 74.4

C1CC[NH2+]C1.CCCCCCCCC(=O)[O-] [pyrrolidinium nonanoate] + O
[1]
Conditions | electrical conductivity [S/m]
w2 = 0 | 0.064 ± 0.005
w2 = 0.0476 | 0.073 ± 0.006
w2 = 0.0909 | 0.122 ± 0.01
w2 = 0.1667 | 0.295 ± 0.024
w2 = 0.2 | 0.392 ± 0.031
w2 = 0.2593 | 0.579 ± 0.046
w2 = 0.3103 | 0.754 ± 0.06
w2 = 0.3548 | 0.915 ± 0.073
w2 = 0.3939 | 1.07 ± 0.086
w2 = 0.4595 | 1.29 ± 0.1
w2 = 0.5 | 1.44 ± 0.12
w2 = 0.5556 | 1.61 ± 0.13
w2 = 0.5833 | 1.68 ± 0.14
w2 = 0.6 | 1.73 ± 0.14
w2 = 0.6154 | 1.76 ± 0.14
w2 = 0.6296 | 1.79 ± 0.14
w2 = 0.6429 | 1.81 ± 0.14
w2 = 0.6552 | 1.84 ± 0.15
w2 = 0.6667 | 1.85 ± 0.15
w2 = 0.7143 | 1.87 ± 0.15
w2 = 0.8065 | 1.63 ± 0.13
w2 = 0.902 | 1.08 ± 0.087

C1CC[NH2+]C1.CCCCCCCC(=O)[O-] [pyrrolidinium octanoate]
[2]
Conditions | electrical conductivity [S/m] | mass density [kg/m3] | viscosity [mPa·s]
– | 0.08 ± 0.006 | 949.5 ± 60 | 36.5

C1CC[NH2+]C1.CCCCCCCC(=O)[O-] [pyrrolidinium octanoate] + O
[1]
Conditions | electrical conductivity [S/m]
w2 = 0 | 0.08 ± 0.006
w2 = 0.0475 | 0.223 ± 0.018
w2 = 0.0908 | 0.347 ± 0.028
w2 = 0.1664 | 0.635 ± 0.051
w2 = 0.1997 | 0.795 ± 0.064
w2 = 0.2589 | 1.06 ± 0.085
w2 = 0.31 | 1.31 ± 0.1
w2 = 0.3544 | 1.58 ± 0.13
w2 = 0.3935 | 1.7 ± 0.14
w2 = 0.459 | 1.93 ± 0.15
w2 = 0.4996 | 2.06 ± 0.17
w2 = 0.5551 | 2.18 ± 0.17
w2 = 0.5996 | 2.23 ± 0.18
w2 = 0.6292 | 2.23 ± 0.18
w2 = 0.6548 | 2.22 ± 0.18
w2 = 0.7011 | 2.17 ± 0.17
w2 = 0.7558 | 2.03 ± 0.16
w2 = 0.7724 | 1.97 ± 0.16
w2 = 0.8037 | 1.83 ± 0.15
w2 = 0.8212 | 1.68 ± 0.13

O=C[O-].c1ccc2[nH+]cccc2c1 [quinolinium formate]
[2]
Conditions | electrical conductivity [S/m] | mass density [kg/m3] | viscosity [mPa·s]
– | 0.415 ± 0.033 | 1153 ± 60 | 8.2

O=C[O-].c1ccc2[nH+]cccc2c1 [quinolinium formate] + O
[1]
Conditions | electrical conductivity [S/m]
w2 = 0 | 0.415 ± 0.033
w2 = 0.0566 | 0.621 ± 0.05
w2 = 0.0909 | 0.854 ± 0.068
w2 = 0.1667 | 1.38 ± 0.11
w2 = 0.2 | 1.59 ± 0.13
w2 = 0.2593 | 2.01 ± 0.16
w2 = 0.3103 | 2.47 ± 0.2
w2 = 0.3548 | 2.84 ± 0.23
w2 = 0.3939 | 3.1 ± 0.25
w2 = 0.4444 | 3.49 ± 0.28
w2 = 0.4595 | 3.59 ± 0.29
w2 = 0.5 | 3.81 ± 0.3
w2 = 0.5652 | 4.11 ± 0.33
w2 = 0.6 | 4.23 ± 0.34
w2 = 0.6552 | 4.3 ± 0.34
w2 = 0.7059 | 4.26 ± 0.34
w2 = 0.75 | 4.12 ± 0.33
w2 = 0.8 | 3.94 ± 0.32
w2 = 0.8571 | 3.37 ± 0.27
w2 = 0.9 | 2.75 ± 0.22

O [water]
Conditions | electrical conductivity [S/m]
[2] | 0.0001 ± 0.0001

O [water] + C1CC[NH2+]C1.CC(=O)[O-]
Conditions | electrical conductivity [S/m]
[1], w1 = 1 | 0.0001 ± 0.0001

O [water] + C1CC[NH2+]C1.CCCCCC(=O)[O-]
Conditions | electrical conductivity [S/m]
[1], w1 = 1 | 0.0001 ± 0.0001

O [water] + C1CC[NH2+]C1.CCCCCCC(=O)[O-]
Conditions | electrical conductivity [S/m]
[1], w1 = 1 | 0.0001 ± 0.0001

O [water] + C1CC[NH2+]C1.CCCCCCCC(=O)[O-]
Conditions | electrical conductivity [S/m]
[1], w1 = 1 | 0.0001 ± 0.0001

O [water] + C1CC[NH2+]C1.CCCCCCCCC(=O)[O-]
Conditions | electrical conductivity [S/m]
[1], w1 = 1 | 0.0001 ± 0.0001

O [water] + C1CC[NH2+]C1.O=C[O-]
Conditions | electrical conductivity [S/m]
[1], w1 = 1 | 0.0001 ± 0.0001

O [water] + C1CC[NH2+]C1.O=[N+]([O-])[O-]
Conditions | electrical conductivity [S/m]
[1], w1 = 1 | 0.0001 ± 0.0001

O [water] + CCCC(C)[NH3+].O=C[O-]
Conditions | electrical conductivity [S/m]
[1], w1 = 1 | 0.0001 ± 0.0001

O [water] + CC[NH+](C(C)C)C(C)C.O=C[O-]
Conditions | electrical conductivity [S/m]
[1], w1 = 1 | 0.0001 ± 0.0001

O [water] + Cc1ccc[n+](C)c1C.O=C[O-]
Conditions | electrical conductivity [S/m]
[1], w1 = 1 | 0.0001 ± 0.0001

O [water] + Cc1cccc[n+]1C.O=C[O-]
Conditions | electrical conductivity [S/m]
[1], w1 = 1 | 0.0001 ± 0.0001

O [water] + O=C[O-].c1ccc2[nH+]cccc2c1
Conditions | electrical conductivity [S/m]
[1], w1 = 1 | 0.0001 ± 0.0001
